Measurements as given in article PMC12703428, “Development of Granzyme A Turn‐ON Fluorescent Activity‐Based Probes” (Chembiochem, 2025).
Entries after “also recorded” stand apart in the source; their conditions may differ. Square brackets hold non-standard residues; d marks the D form. Ends that are not written are not given here. Oic = O=C(O)[C@@H]1C[C@@H]2CCCC[C@@H]2N1; Tic = O=C(O)[C@@H]1Cc2ccccc2CN1

How the values were obtained:
neutrophil elastase (NE) = target: T1, neutrophil elastase (NE) (Homo sapiens, UniProt P08246); experiment: Cross-reactivity labeling, neutrophil elastase; format: biochemical; conditions: protease 100 nM, probe 100 nM, 2 h, 37 °C, in-gel fluorescence
T1 sequence (P08246 30-267): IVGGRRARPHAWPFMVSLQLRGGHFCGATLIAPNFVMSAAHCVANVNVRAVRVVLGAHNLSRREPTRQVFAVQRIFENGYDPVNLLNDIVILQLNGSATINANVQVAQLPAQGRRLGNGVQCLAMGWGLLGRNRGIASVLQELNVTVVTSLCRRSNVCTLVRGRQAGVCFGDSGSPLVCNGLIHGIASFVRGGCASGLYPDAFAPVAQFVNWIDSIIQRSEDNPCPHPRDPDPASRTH
Procedure: Protease (100 nM) HNE PR3 GzmK GzmA
Protease (100 nM) GzmA GzmK
Supplementary Figure 2. Cross-reactivity of probes. (A) Labeling of GzmA, GzmK, PR3, and HNE
(100 nM, 2 h, 37 °C) by 100 nM of 5 and 6. (B) Labeling of GzmA and GzmK (100 nM, 2 h, 37 °C) by
100 nM of 3 – 6. (C) Concentration-dependent labeling of GzmA and GzmK (100 nM, 2 h, 37 °C) by 5 and
6. Protein samples were analyzed by SDS-PAGE and in-gel fluorescence scanning for Cy5 signal.
Protein loading was confirmed by SYPRO Ruby staining. […]

[1] = target: T2, GzmA in intact NK‐92 cells (Homo sapiens, UniProt P12544); experiment: Labeling of GzmA in intact NK-92 cells (in-gel fluorescence); format: cell-based; conditions: 2 h, 37 °C; for Labeling of GzmA in intact NK-92 cells: 1x10^6 NK-92 cells, lysis then in-gel fluorescence and GzmA western blot; for Cell permeability / cellular uptake: intact NK-92 cells, judged from labeling in intact cells
T2 construct: host or cells: NK-92
T2 sequence (P12544 29-262): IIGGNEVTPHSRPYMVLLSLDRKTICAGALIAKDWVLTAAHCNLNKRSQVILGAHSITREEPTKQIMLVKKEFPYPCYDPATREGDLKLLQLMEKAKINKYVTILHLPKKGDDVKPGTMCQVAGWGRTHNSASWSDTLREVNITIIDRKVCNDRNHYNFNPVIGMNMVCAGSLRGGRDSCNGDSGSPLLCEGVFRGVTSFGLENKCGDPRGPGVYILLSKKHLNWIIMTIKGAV
Procedure: Figure 4 Characterization of qABPs in native proteomes. A) Labeling of GzmA by 5 and 6 in lysates of various cell lines (1 h, 37 °C). B) Stability of 5 and 6 in buffer and cell media (11 h, 37 °C). The hydrolysis of probes was measured by monitoring the production of Cy5 fluorescence signal over time. […] C) Labeling of GzmA by probes 3 –6 in NK‐92 cells (2 h, 37 °C). D) Flow cytometry analysis of protein labeling in NK‐92 cells by 3 –5. […] E) Flow cytometry analysis of concentration‐dependent GzmA labeling in NK‐92 cells and S/N of 5 (5 μM, 2 h, 37 °C). […] F) Flow cytometry analysis of protein labeling by 5 in MDA‐MB‐231 cells co‐cultured with NK‐92 cells (see Supporting Information for conditions). […] TEXT PRINTED IN THE PICTURE: (E) qABP 5: S/N = 4 […]
Final reaction volume was 20 µL. […]
Conditions for Figure 4C: Various concentrations of probes 3-6 were incubated with 1x10^6 NK-92 cells for 2 h at 37 °C in a humidified incubator. Cells were centrifuged, washed with PBS (x2) and lysed with ~40 µL of ice-cold RIPA buffer. Lysates were collected, protein concentration was measured with PIERCE BCA protein assay and samples were analyzed with in-gel fluorescence and GzmA western blotting.
D. Flow cytometry analysis […]
Conditions for Figure 4F: In a 6-well cell culture plate, 5x10^5 MDA-MB-231 cells were seeded and allowed to attach overnight. After confirming cell attachment under the microscope, media were removed and fresh media containing 2x10^6 NK-92 cells (or NK-92 culture media alone for control) were added along with simultaneous addition of qABP 5 (5 µM). Cells were co-cultured for the indicated times at 37 °C under 5% CO2 in a humidified atmosphere. […]
E. Synthesis of compounds
1H, 13C and 31P spectra were acquired on a 500 MHz NMR in CDCl3 or CD3OD at 25 °C. The 1H chemical shifts are given in parts per million (δ) with respect to an internal tetramethylsilane (TMS, δ 0.00 ppm) standard. NMR data are reported in the following format: chemical shifts (multiplicity (s = singlet, d = doublet, t = triplet, m = multiplet), coupling constants [Hz], integration). LCMS data were acquired on Agilent 1200 series LC/MS or Shimadzu Prominence-i LC-2030s instrument, whereas HRMS data were obtained on an Agilent Q-TOF LC/MS/MS instrument. All compounds are >95% pure by HPLC analysis.

Substance	Labeling of NE (cross-reactivity) (neutrophil elastase (NE))	Labeling of GzmA in intact NK-92 cells [1]	Cell permeability / cellular uptake [1]
IGNR [compound 5]	Neither probe 5 nor 6 showed detectable labeling	effectively labeled active GzmA in intact cells	excellent cellular uptake
[Tic]G[Oic]R [compound 6]	Neither probe 5 nor 6 showed detectable labeling	poor labeling	limited cell permeability; also recorded: cell impermeable
